Like-named read-outs stand apart in the source and are kept apart here.
Key:
Jurkat cells = assay: Leukemia cell growth inhibition, Jurkat; format: cell-based; conditions: Homo sapiens; Jurkat (Adult T cell leukemia)
H460 cells = assay: Dasatinib-resistant cell growth inhibition (MTT), H460; format: cell-based; conditions: Homo sapiens, NCI-H460, 8.0×10^3 cells/well, 1.5% FBS, 78 Hr
Description: The OD570 was measured using microplate reader. Growth inhibition curves and EC50/IC50 were determined using GraphPad Prism 4 statistical software. Data was normalized to represent percent of maximum response.

[1] = test system: HT29 (human colon cancer) xenograft; assay: Oral potency in staged HT29 mouse xenografts; conditions: 25 mg/kg bid; at day 5 dose lowered to 15 mg/kg bid
HT29 cell line = assay: Cell growth inhibition (BrdU assay), HT29; format: cell-based, human
Description: The HT29 cell line is a NCI standard human colon carcinoma cell line.
(§1) In the BrdU Assay for cell growth inhibition, quantitation of cell proliferation was based on the measurement of BrdU incorporation during DNA synthesis. The Cell Proliferation ELISA BrdU assay kit (colorimetric) was obtained from Roche Applied Science and performed as per vendor instructions.
(§2) The growth inhibition (GI) is determined from the formula GI=(T0−Tn×100/T0−CONn) where T0 is the BrdU growth of untreated cells at time “0”, Tn is the BrdU growth of treated cells at day “n” and CONn is the control BrdU growth of control cells at day “n”. The GI50 was extrapolated and the data plotted using XL-Fit 4.0 software.
(§3) For 96 well culture plate experiments, c-Src 3T3 medium was supplemented with 10 mM HEPES buffer. HT-29 cells were seeded in standard tissue culture 96-well plates and c-Src 3T3 cells were seeded in 96-well plates coated with Poly-D-lysine (BIOCOAT™). To increase CO2 diffusion, c-Src 3T3 96-well plates were incubated with their lids raised by ˜2 mm using sterile rubber caps.
(§4) Samples were reconstituted in DMSO at 20 mM and intermediate dilutions made using DMEM containing 10% FBS. […] Plates were assayed for BrdU and the data analyzed as above for GI50.

SKOV-3 cells = assay: Cell growth inhibition (BrdU assay), SKOV-3; conditions: SKOV-3 (Ovarian); Drug 1 = taxol
Description: (§6) Cell lines being evaluated are: SKOV-2, K562, HT-29, A549, and MDA231. […] Except MDA231, this line is grown at 37° C. and 0% CO2.
(§7) Except MDA231, this line is grown at 37° C. and 0% CO2. Brdu assay was performed at T=0 and T=72.
(§8) Growth Inhibition. The BrdU data was used to determine the % growth inhibition for each sample concentration using the formula:
(§9) where T0=Fluorescence of cells at time 0; T1=Fluorescence of treated cells at x hours; Con=Fluorescence of control cells at x hours. T1 values T0 values were designated as T, cytotoxicity. The GI50 was estimated using XLFit excluding T1 values T0 (cytotoxicity).

A549 cells = assay: Cell growth inhibition (BrdU assay), A549; format: cell-based, human; conditions: A549 (Lung); Drug 1 = Tarceva
Description: as §6, §7, §8, §9

L3.6pl cell line = assay: Cell growth inhibition (BrdU assay), L3.6pl; format: cell-based, human
Description: L3.6pl cells are previously described in Trevino et al. Am J. Pathol.

c-Src527F/NIH3T3 cells = assay: Cell growth inhibition (BrdU assay), c-Src 3T3; format: cell-based; conditions: Mus musculus
Description: The cells were routinely cultured in DMEM supplemented with Fetal Bovine Serum (2.0% v/V), L-glutamine (2 mM) and Sodium Pyruvate (1 mM).
as §1, §2, §3, §4

Abl(h) = Abl(h) (Homo sapiens, UniProt P00519); assay: Isolated kinase activity, Abl; format: biochemical; conditions: @ 10 μM
EGFR(h) = EGFR(h) (Homo sapiens, UniProt P00533); assay: Isolated kinase activity, EGFR; format: biochemical; conditions: @ 10 μM
FGFR2(h) = FGFR2(h) (Homo sapiens, UniProt P21802); assay: Isolated kinase activity, FGFR2; format: biochemical; conditions: @ 10 μM
Fyn(h) = Fyn(h) (Homo sapiens, UniProt P06241); assay: Isolated kinase activity, Fyn; format: biochemical; conditions: @ 10 μM
IGF-1R(h) = IGF-1R(h) (Homo sapiens, UniProt P08069); assay: Isolated kinase activity, IGF-1R; format: biochemical; conditions: @ 10 μM
IR(h) = IR(h) (Homo sapiens, UniProt P06213); assay: Isolated kinase activity, IR; format: biochemical; conditions: @ 10 μM
Lck(h) = Lck(h) (Homo sapiens, UniProt P06239); assay: Isolated kinase activity, Lck; format: biochemical; conditions: @ 10 μM
Lyn(h) = Lyn(h) (Homo sapiens, UniProt P07948); assay: Isolated kinase activity, Lyn; format: biochemical; conditions: @ 10 μM
MAPK2(h) = MAPK2(h) (Homo sapiens, UniProt P28482); assay: Isolated kinase activity, MAPK2; format: biochemical; conditions: @ 10 μM
PDGFRβ(h) = PDGFRβ(h) (Homo sapiens, UniProt P09619); assay: Isolated kinase activity, PDGFRβ; format: biochemical; conditions: @ 10 μM
PKCα(h) = PKCα(h) (Homo sapiens, UniProt P17252); assay: Isolated kinase activity, PKCα; format: biochemical; conditions: @ 10 μM
Pyk2(h) = Pyk2(h) (Homo sapiens, UniProt Q14289); assay: Isolated kinase activity, Pyk2; format: biochemical; conditions: @ 10 μM
Yes(h) = Yes(h) (Homo sapiens, UniProt P07947); assay: Isolated kinase activity, Yes; format: biochemical; conditions: @ 10 μM
ZAP-70(h) = ZAP-70(h) (Homo sapiens, UniProt P43403); assay: Isolated kinase activity, ZAP-70; format: biochemical; conditions: @ 10 μM
PI3 kinase = assay: Isolated kinase activity, PI3 kinase; format: biochemical; conditions: @ 10 μM
isolated Src = isolated Src (Homo sapiens, UniProt P12931); assay: Titration against isolated Src; format: biochemical
isolated FAK = isolated FAK (Homo sapiens, UniProt Q05397); assay: Titration against isolated FAK; format: biochemical
Src = target: T1, Src (Homo sapiens, UniProt P12931, Y530F); assay: Src kinase activity in whole cells (auto- and transphosphorylation, PAGE/antibodies); format: cell-based
T1 construct: expressed in transfected cells; host or cells: c-Src527F/NIH-3T3 (mouse fibroblasts transfected with human c-Src Y527F); part of the results come from HT-29 (endogenous human Src)
Description: (§5) AZ28 serves as a positive comparator to show what a validated Src inhibitor should do in these assays. After treatment with compound, cells were lysed, subjected to PAGE and probed with a battery of antibodies. […] In addition, off-target protein phosphorylation was also investigated. Further, induction of apoptosis was evaluated via Caspase 3 cleavage. Multiple doses of each compound were tested because the trends in response to increasing drug concentration are the most reliable indicator of activity.

Caspase-3 cleavage = assay: Induction of apoptosis via Caspase 3 cleavage; format: cell-based; conditions: HT29 and c-Src527F/NIH-3T3 cells
Description: as §5
Cleavage of Caspase-3 is a good measure of induction of apoptosis.

total phosphotyrosine = assay: Total phosphotyrosine levels in cells; format: cell-based; conditions: HT29 and c-Src527F/NIH-3T3 cells
Description: as §5

[2] = target: T2, PDGF receptor tyrosine kinase Y572/574 (Mus musculus, UniProt P26618); assay: PDGF receptor autophosphorylation in whole cells; format: cell-based
T2 construct: endogenous in cells; host or cells: c-Src527F/NIH-3T3
Description: as §5
This is thought not to be a direct Src substrate in cells.

FAK Y397 = assay: FAK autophosphorylation in whole cells; format: cell-based; conditions: c-Src527F/NIH3T3 cells
Description: as §5
FAK Y397 is mainly a FAK autophosphorylation site and only a poor Src transphorylation site. AZ28 is not a potent FAK inhibitor (see isolated enzyme data in Example 8).

[3] = test system: EGFR tyrosine kinase (EGF Y845); assay: EGFR tyrosine kinase autophosphorylation in whole cells; format: cell-based
Description: as §5
This site is not a direct Src phosphorylation site.

isolated FAK, sequence (Q05397 whole entry): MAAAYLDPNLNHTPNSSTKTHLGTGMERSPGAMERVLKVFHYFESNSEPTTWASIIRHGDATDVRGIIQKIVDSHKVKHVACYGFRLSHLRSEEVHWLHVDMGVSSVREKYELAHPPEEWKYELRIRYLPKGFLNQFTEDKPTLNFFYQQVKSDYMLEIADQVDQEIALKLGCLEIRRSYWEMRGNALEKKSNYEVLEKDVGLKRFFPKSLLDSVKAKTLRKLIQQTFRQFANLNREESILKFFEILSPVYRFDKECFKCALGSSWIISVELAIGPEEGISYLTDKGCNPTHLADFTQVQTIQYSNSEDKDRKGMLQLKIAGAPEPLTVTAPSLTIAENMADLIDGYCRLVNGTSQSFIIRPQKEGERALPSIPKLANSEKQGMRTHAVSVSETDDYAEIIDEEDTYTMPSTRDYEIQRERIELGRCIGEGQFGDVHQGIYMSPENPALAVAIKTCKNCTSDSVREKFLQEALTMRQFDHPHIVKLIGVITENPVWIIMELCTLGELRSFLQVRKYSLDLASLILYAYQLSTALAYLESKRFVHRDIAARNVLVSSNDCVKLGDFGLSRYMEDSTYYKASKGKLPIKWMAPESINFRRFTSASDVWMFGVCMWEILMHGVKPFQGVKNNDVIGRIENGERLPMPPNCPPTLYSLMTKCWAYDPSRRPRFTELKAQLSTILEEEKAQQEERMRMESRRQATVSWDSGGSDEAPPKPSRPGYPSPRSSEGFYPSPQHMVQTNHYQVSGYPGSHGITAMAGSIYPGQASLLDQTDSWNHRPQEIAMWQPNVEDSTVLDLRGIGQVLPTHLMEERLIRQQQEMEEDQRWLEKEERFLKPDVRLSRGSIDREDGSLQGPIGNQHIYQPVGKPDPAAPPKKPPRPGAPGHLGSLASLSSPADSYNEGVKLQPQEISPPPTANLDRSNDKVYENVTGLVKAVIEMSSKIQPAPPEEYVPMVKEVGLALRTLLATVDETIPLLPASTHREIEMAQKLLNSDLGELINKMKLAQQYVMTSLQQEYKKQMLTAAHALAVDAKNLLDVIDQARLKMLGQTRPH
Abl(h), sequence (P00519 whole entry): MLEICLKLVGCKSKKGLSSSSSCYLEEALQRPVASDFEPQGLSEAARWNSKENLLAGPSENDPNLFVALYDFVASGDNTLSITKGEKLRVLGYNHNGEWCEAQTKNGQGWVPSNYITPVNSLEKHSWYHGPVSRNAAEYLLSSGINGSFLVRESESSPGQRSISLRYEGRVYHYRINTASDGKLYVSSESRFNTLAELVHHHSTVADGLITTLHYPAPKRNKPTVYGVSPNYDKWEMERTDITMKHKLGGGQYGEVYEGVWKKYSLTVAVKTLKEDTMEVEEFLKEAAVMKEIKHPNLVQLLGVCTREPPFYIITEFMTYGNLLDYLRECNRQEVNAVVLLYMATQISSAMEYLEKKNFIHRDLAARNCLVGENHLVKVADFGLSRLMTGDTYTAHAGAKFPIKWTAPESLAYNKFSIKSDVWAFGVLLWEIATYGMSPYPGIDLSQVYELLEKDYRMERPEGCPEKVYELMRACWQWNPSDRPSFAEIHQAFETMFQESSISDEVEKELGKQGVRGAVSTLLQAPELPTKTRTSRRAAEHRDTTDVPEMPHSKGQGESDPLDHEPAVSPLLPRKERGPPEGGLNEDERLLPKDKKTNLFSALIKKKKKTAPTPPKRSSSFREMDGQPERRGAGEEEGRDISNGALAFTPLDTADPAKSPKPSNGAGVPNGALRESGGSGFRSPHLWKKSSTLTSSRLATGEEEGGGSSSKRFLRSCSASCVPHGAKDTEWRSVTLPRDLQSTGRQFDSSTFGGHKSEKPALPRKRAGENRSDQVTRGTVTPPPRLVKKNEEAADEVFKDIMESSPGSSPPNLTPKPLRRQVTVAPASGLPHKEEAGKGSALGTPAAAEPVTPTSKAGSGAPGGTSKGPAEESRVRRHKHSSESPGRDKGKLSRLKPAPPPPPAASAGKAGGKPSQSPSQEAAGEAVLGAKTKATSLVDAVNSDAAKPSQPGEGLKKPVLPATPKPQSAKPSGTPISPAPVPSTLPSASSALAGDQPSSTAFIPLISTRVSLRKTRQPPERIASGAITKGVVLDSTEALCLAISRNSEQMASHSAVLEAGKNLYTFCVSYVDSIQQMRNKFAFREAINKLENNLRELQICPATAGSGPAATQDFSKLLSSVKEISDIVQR
Fyn(h), sequence (P06241 whole entry): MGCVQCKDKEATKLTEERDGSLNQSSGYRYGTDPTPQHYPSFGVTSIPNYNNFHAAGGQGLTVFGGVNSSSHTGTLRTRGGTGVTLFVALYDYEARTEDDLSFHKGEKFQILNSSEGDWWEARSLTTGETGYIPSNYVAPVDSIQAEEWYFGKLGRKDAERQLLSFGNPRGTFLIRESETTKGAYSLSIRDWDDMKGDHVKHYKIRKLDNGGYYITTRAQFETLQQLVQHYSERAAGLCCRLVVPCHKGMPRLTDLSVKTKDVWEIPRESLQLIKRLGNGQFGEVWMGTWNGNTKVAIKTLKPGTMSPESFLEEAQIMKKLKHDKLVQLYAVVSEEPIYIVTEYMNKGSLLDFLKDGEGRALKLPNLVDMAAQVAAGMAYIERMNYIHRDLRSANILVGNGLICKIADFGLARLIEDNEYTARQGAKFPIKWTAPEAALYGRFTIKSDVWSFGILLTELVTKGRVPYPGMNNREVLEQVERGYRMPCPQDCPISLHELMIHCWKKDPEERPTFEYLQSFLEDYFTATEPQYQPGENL
T2 sequence (P26618 25-1089): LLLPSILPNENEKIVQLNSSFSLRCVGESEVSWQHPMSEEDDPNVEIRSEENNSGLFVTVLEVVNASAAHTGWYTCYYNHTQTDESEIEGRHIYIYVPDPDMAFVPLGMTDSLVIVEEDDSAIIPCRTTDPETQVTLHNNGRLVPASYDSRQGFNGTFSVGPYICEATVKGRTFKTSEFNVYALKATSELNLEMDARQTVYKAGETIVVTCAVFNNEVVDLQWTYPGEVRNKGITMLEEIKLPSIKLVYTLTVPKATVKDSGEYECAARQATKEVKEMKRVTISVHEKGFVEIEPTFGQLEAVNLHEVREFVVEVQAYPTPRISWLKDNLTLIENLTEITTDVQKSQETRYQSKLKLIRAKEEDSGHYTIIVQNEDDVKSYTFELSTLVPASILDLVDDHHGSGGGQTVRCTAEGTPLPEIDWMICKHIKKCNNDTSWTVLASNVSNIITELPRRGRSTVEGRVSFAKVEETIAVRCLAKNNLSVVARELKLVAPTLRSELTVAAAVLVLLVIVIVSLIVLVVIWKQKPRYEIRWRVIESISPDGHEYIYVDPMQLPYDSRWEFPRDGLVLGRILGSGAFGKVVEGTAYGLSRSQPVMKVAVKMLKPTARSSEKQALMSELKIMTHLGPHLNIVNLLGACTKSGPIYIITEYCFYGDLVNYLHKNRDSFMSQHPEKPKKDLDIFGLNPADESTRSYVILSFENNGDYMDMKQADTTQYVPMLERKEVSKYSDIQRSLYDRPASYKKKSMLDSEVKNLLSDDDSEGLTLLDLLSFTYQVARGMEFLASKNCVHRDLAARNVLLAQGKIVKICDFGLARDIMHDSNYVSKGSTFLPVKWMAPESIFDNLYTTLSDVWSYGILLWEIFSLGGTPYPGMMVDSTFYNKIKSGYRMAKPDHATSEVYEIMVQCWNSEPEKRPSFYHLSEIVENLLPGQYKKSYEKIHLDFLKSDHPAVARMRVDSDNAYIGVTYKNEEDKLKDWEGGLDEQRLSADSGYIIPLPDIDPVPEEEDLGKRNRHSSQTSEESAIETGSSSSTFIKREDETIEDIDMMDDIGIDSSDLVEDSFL
MAPK2(h), sequence (P28482 whole entry): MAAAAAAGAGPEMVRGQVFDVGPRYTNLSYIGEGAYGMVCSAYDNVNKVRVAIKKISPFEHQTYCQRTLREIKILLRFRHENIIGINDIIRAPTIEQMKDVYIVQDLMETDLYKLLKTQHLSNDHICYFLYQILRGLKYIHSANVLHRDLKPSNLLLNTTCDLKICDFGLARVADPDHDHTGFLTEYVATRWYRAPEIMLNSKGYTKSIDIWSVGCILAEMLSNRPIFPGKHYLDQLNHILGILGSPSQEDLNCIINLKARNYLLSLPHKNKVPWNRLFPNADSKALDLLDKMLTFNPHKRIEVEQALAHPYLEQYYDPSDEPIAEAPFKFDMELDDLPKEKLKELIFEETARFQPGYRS

SMILES: Cc1nc(Nc2ncc(C(=O)Nc3c(C)cccc3Cl)s2)cc(N2CCN(CCO)CC2)n1 [Dasatinib]
- GI50 (Jurkat cells): 0.008 µM
- IC50 (H460 cells): 0.09 µM
- body weight [1]: weight loss

SMILES: O=C1[O][Pt]2([NH][C@@H]3CCCC[C@H]3[NH]2)[O]C1=O [oxaliplatin]
- Drug 1:compound (I) GI50 ratio (HT29 cell line; HT29 (Colon), Drug 1 = oxaliplatin): 59

SMILES: CC(=O)O[C@H]1C(=O)[C@@]2(C)[C@H]([C@H](OC(=O)c3ccccc3)[C@]3(O)C[C@H](OC(=O)[C@H](O)[C@@H](NC(=O)c4ccccc4)c4ccccc4)C(C)=C1C3(C)C)[C@]1(OC(C)=O)CO[C@@H]1C[C@@H]2O [taxol]
- Drug 1:compound (I) GI50 ratio (SKOV-3 cells): 0.40

SMILES: C#Cc1cccc(Nc2ncnc3cc(OCCOC)c(OCCOC)cc23)c1 [Tarceva]
- Drug 1:compound (I) GI50 ratio (A549 cells): 134

SMILES: Nc1ccn([C@@H]2O[C@H](CO)[C@@H](O)C2(F)F)c(=O)n1 [Gemcitabine, gemcitabine]
- GI50 (L3.6pl cell line; Homo sapiens, L3.6pl, BrdU, T=72, read-out: GI50, Single): 0.00176 µM
- Drug 1:compound (I) GI50 ratio (L3.6pl cell line; L3.6pl (Pancreas), Drug 1 = Gemcitabine): 1/13

SMILES: COc1cc2c(Nc3c(Cl)ccc4c3OCO4)ncnc2cc1OCCCN1CCCCC1 [KX2-328]
- GI50 (HT29 cell line; Homo sapiens, HT-29, HT29 (Colon), read-out: GI50): 0.647 µM
- GI50 (HT29 cell line; Homo sapiens, HT-29, HT29, read-out: GI50): 0.794 µM
- GI50 (HT29 cell line; Homo sapiens, HT-29, NCI human colon cancer cell line HT29): 0.794 µM
- activity at 0.05 µM (HT29 cell line; Homo sapiens, HT-29, 50 nM, read-out: HT-29 Growth, % of Control, Mean, n = 3): 73%
- activity at 0.5 µM (HT29 cell line; Homo sapiens, HT-29, 500 nM, read-out: HT-29 Growth, % of Control, Mean, n = 3): 10%
- activity at 5 µM (HT29 cell line; Homo sapiens, HT-29, 5 uM, read-out: HT-29 Growth, % of Control, Mean, n = 3): < 0%
- GI50 (c-Src527F/NIH3T3 cells; NIH3T3, c-Src 3T3): 0.099 µM
- GI50 (c-Src527F/NIH3T3 cells; NIH3T3, c-Src527F/NIH3T3): 0.087 µM
- GI50 (c-Src527F/NIH3T3 cells; NIH3T3, c-Src/NIH-3T3 engineered cell line): 0.099 µM
- activity at 0.1 µM (c-Src527F/NIH3T3 cells; NIH3T3, 100 nM, read-out: c-Src 3T3 Growth, % of Control, Mean, n = 3): 13%
- activity at 1 µM (c-Src527F/NIH3T3 cells; NIH3T3, 1.0 uM, read-out: c-Src 3T3 Growth, % of Control, Mean, n = 3): < 0%
- activity at 10 µM (c-Src527F/NIH3T3 cells; NIH3T3, 10 uM, read-out: c-Src 3T3 Growth, % of Control, Mean, n = 3): < 0%
- percent activity of isolated kinase relative to control (untreated) (Abl(h)): 1%
- percent activity of isolated kinase relative to control (untreated) (EGFR(h)): 3%
- percent activity of isolated kinase relative to control (untreated) (FGFR2(h)): 94%
- percent activity of isolated kinase relative to control (untreated) (Fyn(h)): 2%
- percent activity of isolated kinase relative to control (untreated) (IGF-1R(h)): 110%
- percent activity of isolated kinase relative to control (untreated) (IR(h)): 125%
- percent activity of isolated kinase relative to control (untreated) (Lck(h)): 1%
- percent activity of isolated kinase relative to control (untreated) (Lyn(h)): 0%
- percent activity of isolated kinase relative to control (untreated) (MAPK2(h)): 105%
- percent activity of isolated kinase relative to control (untreated) (PDGFRβ(h)): 98%
- percent activity of isolated kinase relative to control (untreated) (PKCα(h)): 111%
- percent activity of isolated kinase relative to control (untreated) (Pyk2(h)): 43%
- percent activity of isolated kinase relative to control (untreated) (Yes(h)): 1%
- percent activity of isolated kinase relative to control (untreated) (ZAP-70(h)): 97%
- percent activity of isolated kinase relative to control (untreated) (PI3 kinase): 99%
- IC50 (isolated Src): 0.008 µM
- fold less potent against cell growth than against isolated Src (isolated Src): 10-100 ×
- IC50 (isolated FAK): > 0.5 µM
- fold less potent against isolated FAK (than isolated Src) (isolated FAK): ≥ 100 ×
- phosphorylation of Paxillin Y-31 (Src transphosphorylation substrate) (Src; c-Src527F/NIH-3T3 cells): inhibited Src trans-phosphorylation
- phosphorylation of FAK Tyr 925 (Src transphosphorylation substrate) (Src; whole cells): inhibited Src trans-phosphorylation
- phosphorylation of Shc Y239/240 (Src transphosphorylation substrate) (Src; whole cells): inhibited Src trans-phosphorylation
- induction of apoptosis (Caspase-3 cleavage) (Caspase-3 cleavage): not effective in inducing apoptosis
- total phosphotyrosine levels (total phosphotyrosine): reduction in the total phosphotyrosine levels
- PDGF receptor autophosphorylation (Y572/574) [2]: dose response reduction
- FAK autophosphorylation (Y397) (FAK Y397): some inhibition
- EGFR tyrosine kinase autophosphorylation [3]: potently inhibits

Reference: patent US20100278776A1, “PHARMACEUTICAL COMPOSITIONS FOR MODULATING A KINASE CASCADE AND METHODS OF USE THEREOF” (Kinex Pharmaceuticals, LLC, priority 2007, published 2010)
